Assay [1] concerns the target DDR1 (Homo sapiens (Human), UniProt Q08345). As to the kind of experiment: DDR1 LanthaScreen Europium Kinase Binding assay. The settings on record: binding; 5 nM DDR1, 20 nM Kinase Tracer 178, 1 hour at rt; Ki from IC50 by Cheng-Prusoff; read-out: Ki DDR1. The protocol: (§1) DDR1 and DDR2 binding assays were performed using Life Technologies LanthaScreen™ Europium Kinase Binding assay. The compounds were incubated with 5 nM DDR1 (Carna Biosciences) or 5 nM DDR2 (Life Technologies) for 1 hour at rt in white 384-well OptiPlate (PerkinElmer), containing 20 nM or 10 nM Kinase Tracer 178 respectively and 2 nM Europium labelled anti-GST antibody (Life Technologies) in assay buffer (50 mM HEPES pH 7.5, 10 mM MgCI2, 1 mM EGTA and 0.01% BRIJ35). The ratio of fluorescence emission 665 nm/615 nm after excitation at 340 nm was obtained using the Tecan Spark 20M plate reader. IC50 values were determined in GraphPad Prism 7.0 software, using 4 parameter model: log(inhibitor) vs. response. IC50 values were converted in Ki using the Cheng-Prusoff equation (Ki=IC50/(1+[Tracer]/Kd).
(§2) Compounds C1 and C2 were tested in the same binding assay described above.
Background: TR-FRET usually uses a lanthanide donor and a delayed reading to cut background.

Assay [2] concerns the target DDR2 (Homo sapiens (Human), UniProt Q16832). Kind of assay: DDR2 LanthaScreen Europium Kinase Binding assay. Conditions: binding; 5 nM DDR2, 10 nM Kinase Tracer 178, 1 hour at rt; Ki from IC50 by Cheng-Prusoff; read-out: Ki DDR2. The protocol: as §1, §2

DDR2, sequence (Q16832 22-855): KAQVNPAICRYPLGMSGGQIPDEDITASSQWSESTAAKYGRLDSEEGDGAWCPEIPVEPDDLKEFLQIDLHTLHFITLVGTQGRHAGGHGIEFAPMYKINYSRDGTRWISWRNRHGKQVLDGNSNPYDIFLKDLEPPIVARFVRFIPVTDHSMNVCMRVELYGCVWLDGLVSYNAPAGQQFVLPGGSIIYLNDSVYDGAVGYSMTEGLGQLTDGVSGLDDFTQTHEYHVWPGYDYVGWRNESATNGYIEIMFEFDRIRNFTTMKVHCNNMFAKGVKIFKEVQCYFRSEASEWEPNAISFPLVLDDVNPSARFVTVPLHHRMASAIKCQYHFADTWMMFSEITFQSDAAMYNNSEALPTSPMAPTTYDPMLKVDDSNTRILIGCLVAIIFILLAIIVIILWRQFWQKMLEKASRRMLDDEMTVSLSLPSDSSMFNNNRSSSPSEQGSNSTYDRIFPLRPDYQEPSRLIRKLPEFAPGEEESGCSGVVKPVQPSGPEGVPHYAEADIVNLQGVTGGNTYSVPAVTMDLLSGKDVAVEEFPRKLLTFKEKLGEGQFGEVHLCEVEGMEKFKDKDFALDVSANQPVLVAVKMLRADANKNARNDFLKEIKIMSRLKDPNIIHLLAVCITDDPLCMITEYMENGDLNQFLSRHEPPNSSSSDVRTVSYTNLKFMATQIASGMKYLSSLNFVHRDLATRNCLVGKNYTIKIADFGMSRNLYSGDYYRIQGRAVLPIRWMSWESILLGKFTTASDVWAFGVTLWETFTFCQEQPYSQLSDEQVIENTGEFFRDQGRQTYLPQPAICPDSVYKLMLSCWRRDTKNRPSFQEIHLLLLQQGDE
DDR1, sequence (Q08345 19-913): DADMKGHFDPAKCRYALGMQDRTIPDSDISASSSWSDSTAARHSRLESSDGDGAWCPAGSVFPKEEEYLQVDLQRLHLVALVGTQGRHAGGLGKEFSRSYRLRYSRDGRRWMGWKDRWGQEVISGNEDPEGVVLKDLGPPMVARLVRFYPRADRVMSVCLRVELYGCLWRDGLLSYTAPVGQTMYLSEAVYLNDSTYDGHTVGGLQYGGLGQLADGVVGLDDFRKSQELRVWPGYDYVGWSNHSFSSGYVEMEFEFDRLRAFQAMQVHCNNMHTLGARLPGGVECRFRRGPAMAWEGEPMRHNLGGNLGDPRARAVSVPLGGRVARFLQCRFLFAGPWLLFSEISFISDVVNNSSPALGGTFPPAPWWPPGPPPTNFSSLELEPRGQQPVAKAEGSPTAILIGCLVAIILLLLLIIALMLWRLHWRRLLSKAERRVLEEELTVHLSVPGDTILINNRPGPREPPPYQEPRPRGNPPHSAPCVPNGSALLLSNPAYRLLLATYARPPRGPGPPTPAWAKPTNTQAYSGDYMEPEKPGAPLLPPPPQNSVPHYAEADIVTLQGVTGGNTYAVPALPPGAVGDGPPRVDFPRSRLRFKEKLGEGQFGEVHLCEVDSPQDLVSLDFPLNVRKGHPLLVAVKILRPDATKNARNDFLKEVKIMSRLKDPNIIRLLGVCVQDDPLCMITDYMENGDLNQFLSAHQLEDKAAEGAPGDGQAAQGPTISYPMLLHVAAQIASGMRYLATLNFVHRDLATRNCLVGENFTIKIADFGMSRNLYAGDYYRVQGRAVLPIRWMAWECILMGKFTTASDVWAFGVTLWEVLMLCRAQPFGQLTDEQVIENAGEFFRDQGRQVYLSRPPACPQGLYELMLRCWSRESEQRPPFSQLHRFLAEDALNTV

Regarding `Cc1ccc(C(=O)Nc2cccc(C(F)(F)F)c2)cc1[C@H]1CCN(c2cncc(C(N)=O)c2)C1` [Example 18, (R)-5-(3-(2-methyl-5-((3-(trifluoromethyl)phenyl)carbamoyl)phenyl)pyrrolidin-1-yl)nicotinamide], the Ki was less than 10 nM in assay [1] and 10 to 25 nM in assay [2].

Take `Cc1ccc(C(=O)Nc2cccc(C(F)(F)F)c2)cc1[C@@H]1CCN(c2cncc(C(N)=O)c2)C1` [Example 19, (S)-5-(3-(2-methyl-5-((3-(trifluoromethyl)phenyl)carbamoyl)phenyl)pyrrolidin-1-yl)nicotinamide]: the inhibition constant Ki in assay [1] and in assay [2] was less than 10 nM in each case.

For `Cc1ccc(C(=O)Nc2cccc(C(F)(F)F)c2)cc1[C@@H]1CCN(c2cncnc2)C1` [Example 20, (S)-4-methyl-3-(1-(pyrimidin-5-yl)pyrrolidin-3-yl)-N-(3-(trifluoromethyl)phenyl)benzamide], the Ki in assay [1] and in assay [2] was less than 10 nM throughout.

For `Cc1ccc(C(=O)Nc2cccc(C(F)(F)F)c2)cc1C1CCN(c2cncc(NCCN(C)C)c2)C1` (stereo not shown) [Example 21, 3-(1-(5-((2-(dimethylamino)ethyl)amino)pyridin-3-yl)pyrrolidin-3-yl)-4-methyl-N-(3-(trifluoromethyl)phenyl)benzamide], the results for the inhibitory constant (Ki) in assay [1] and in assay [2] were less than 10 nM and 25 to 60 nM, respectively.

Take `Cc1ccc(C(=O)Nc2cccc(C(F)(F)F)c2)cc1C1CCN(c2cncc(NCCN3CCOCC3)c2)C1` (stereo not shown) [Example 22, 4-methyl-3-(1-(5-((2-morpholinoethyl)amino)pyridin-3-yl)pyrrolidin-3-yl)-N-(3-(trifluoromethyl)phenyl)benzamide]: the Ki was less than 10 nM in assay [1] and 10 to 25 nM in assay [2].

For `Cc1ccc(C(=O)Nc2cccc(C(F)(F)F)c2)cc1C1CCN(c2cncc(OCCN(C)C)c2)C1` (stereo not shown) [Example 23, 3-(1-(5-(2-(dimethylamino)ethoxy)pyridin-3-yl)pyrrolidin-3-yl)-4-methyl-N-(3-(trifluoromethyl)phenyl)benzamide], the inhibition constant (Ki) in assay [1] and in assay [2] was less than 10 nM each time.

As for `Cc1ccc(C(=O)Nc2cccc(C(F)(F)F)c2)cc1C1CCN(c2ccnc(C#N)c2)C1` (stereo not shown) [Example 24, 3-(1-(2-cyanopyridin-4-yl)pyrrolidin-3-yl)-4-methyl-N-(3-(trifluoromethyl)phenyl)benzamide], the inhibitory constant (Ki) in assay [1] is 25 to 60 nM; in assay [2] it was greater than 60 nM.

`CNC(=O)c1cc(N2CC[C@@H](c3cc(C(=O)Nc4cccc(C(F)(F)F)c4)ccc3C)C2)ccn1` [Example 25, (S)-N-methyl-4-(3-(2-methyl-5-((3-(trifluoromethyl)phenyl)carbamoyl)phenyl)pyrrolidin-1-yl)picolinamide]: the inhibitory constant (Ki) in assay [1] and in assay [2] was less than 10 nM throughout.

Regarding `CNC(=O)c1cncc(N2CC[C@@H](c3cc(C(=O)Nc4cccc(C(F)(F)F)c4)ccc3C)C2)c1` [Example 26, (S)-N-methyl-5-(3-(2-methyl-5-((3-(trifluoromethyl)phenyl)carbamoyl)phenyl)pyrrolidin-1-yl)nicotinamide], the Ki in assay [1] and in assay [2] was less than 10 nM each time.

Consider `CNC(=O)c1cc(N2CC[C@H](c3cc(C(=O)Nc4cccc(C(F)(F)F)c4)ccc3C)C2)ccn1` [Example 27, (R)-N-methyl-4-(3-(2-methyl-5-((3-(trifluoromethyl)phenyl)carbamoyl)phenyl)pyrrolidin-1-yl)picolinamide], for which the Ki in assay [1] was less than 10 nM; in assay [2], 25 to 60 nM.

Consider `CNC(=O)c1cncc(N2CC[C@H](c3cc(C(=O)Nc4cccc(C(F)(F)F)c4)ccc3C)C2)c1` [Example 28, (R)-N-methyl-5-(3-(2-methyl-5-((3-(trifluoromethyl)phenyl)carbamoyl)phenyl)pyrrolidin-1-yl)nicotinamide], for which the Ki is less than 10 nM in assay [1] and 10 to 25 nM in assay [2].

Regarding `COCCOc1cncc(N2CC[C@@H](c3cc(C(=O)Nc4cccc(C(F)(F)F)c4)ccc3C)C2)c1` [Example 30, (S)-3-(1-(5-(2-methoxyethoxy)pyridin-3-yl)pyrrolidin-3-yl)-4-methyl-N-(3-(trifluoromethyl)phenyl)benzamide], the Ki in assay [1] is less than 10 nM; in assay [2], 10 to 25 nM.

`Cc1ccc(C(=O)Nc2cccc(C(F)(F)F)c2)cc1[C@@H]1CCN(c2cncc(N3CCC(F)(F)CC3)c2)C1` [Example 31, (S)-3-(1-(5-(4,4-difluoropiperidin-1-yl)pyridin-3-yl)pyrrolidin-3-yl)-4-methyl-N-(3-(trifluoromethyl)phenyl)benzamide]: the figures for the Ki in assay [1] and in assay [2] were less than 10 nM and greater than 60 nM, respectively.

`Cc1ccc(C(=O)Nc2cccc(C(F)(F)F)c2)cc1[C@@H]1CCN(c2cncc(C(=O)N3CCC(F)(F)CC3)c2)C1` [Example 32, (S)-3-(1-(5-(4,4-difluoropiperidine-1-carbonyl)pyridin-3-yl)pyrrolidin-3-yl)-4-methyl-N-(3-(trifluoromethyl)phenyl)benzamide]: the Ki in assay [1] is 25 to 60 nM; in assay [2], greater than 60 nM.

As for `Cc1ccc(C(=O)Nc2cccc(C(F)(F)F)c2)cc1[C@@H]1CCN(c2cncc(C(=O)N3CCOCC3)c2)C1` [Example 33, (S)-4-methyl-3-(1-(5-(morpholine-4-carbonyl)pyridin-3-yl)pyrrolidin-3-yl)-N-(3-(trifluoromethyl)phenyl)benzamide], the Ki in assay [1] was less than 10 nM; in assay [2], 10 to 25 nM.

Consider `Cc1ccc(C(=O)Nc2cccc(C(F)(F)F)c2)cc1[C@@H]1CCN(c2cncc(C(=O)NCCN(C)C)c2)C1` [Example 34, (S)-N-(2-(dimethylamino)ethyl)-5-(3-(2-methyl-5-((3-(trifluoromethyl)phenyl)carbamoyl)phenyl)pyrrolidin-1-yl)nicotinamide], for which the Ki in assay [1] and in assay [2] was less than 10 nM each time.

Consider `COCCNC(=O)c1cncc(N2CC[C@@H](c3cc(C(=O)Nc4cccc(C(F)(F)F)c4)ccc3C)C2)c1` [Example 35, (S)-N-(2-methoxyethyl)-5-(3-(2-methyl-5-((3-(trifluoromethyl)phenyl)carbamoyl)phenyl)pyrrolidin-1-yl)nicotinamide], for which the inhibitory constant (Ki) in assay [1] and in assay [2] was less than 10 nM in each case.

Regarding `CO[C@@H]1CCCN(c2cncc(N3CC[C@@H](c4cc(C(=O)Nc5cccc(C(F)(F)F)c5)ccc4C)C3)c2)C1` [Example 36, 3-((S)-1-(5-((R)-3-methoxypiperidin-1-yl)pyridin-3-yl)pyrrolidin-3-yl)-4-methyl-N-(3-(trifluoromethyl)phenyl)benzamide], the Ki was less than 10 nM in assay [1] and 25 to 60 nM in assay [2].

Consider `Cc1ccc(C(=O)Nc2cccc(C(F)(F)F)c2)cc1[C@@H]1CCN(c2cncc(N3CC4(COC4)C3)c2)C1` [Example 37, (S)-3-(1-(5-(2-oxa-6-azaspiro[3.3]heptan-6-yl)pyridin-3-yl)pyrrolidin-3-yl)-4-methyl-N-(3-(trifluoromethyl)phenyl)benzamide], for which the inhibition constant (Ki) was less than 10 nM in assay [1] and 10 to 25 nM in assay [2].

As to `Cc1ccc(C(=O)Nc2cccc(C(F)(F)F)c2)cc1[C@@H]1CCN(c2cncc(C(F)F)c2)C1` [Example 38, (S)-3-(1-(5-(difluoromethyl)pyridin-3-yl)pyrrolidin-3-yl)-4-methyl-N-(3-(trifluoromethyl)phenyl)benzamide], the results for the Ki in assay [1] and in assay [2] were less than 10 nM and 10 to 25 nM, respectively.

On to `Cc1ccc(C(=O)Nc2cccc(C(F)(F)F)c2)cc1[C@@H]1CCN(c2cncc(N3CCC4(COC4)C3)c2)C1` [Example 39, (S)-3-(1-(5-(2-oxa-6-azaspiro[3.4]octan-6-yl)pyridin-3-yl)pyrrolidin-3-yl)-4-methyl-N-(3-(trifluoromethyl)phenyl)benzamide], for which the Ki is 10 to 25 nM in assay [1] and greater than 60 nM in assay [2].

For the compound `CC(=O)Nc1cncc(N2CC[C@@H](c3cc(C(=O)Nc4cccc(C(F)(F)F)c4)ccc3C)C2)c1` [Example 40, (S)-3-(1-(5-acetamidopyridin-3-yl)pyrrolidin-3-yl)-4-methyl-N-(3-(trifluoromethyl)phenyl)benzamide], the inhibition constant Ki in assay [1] and in assay [2] was less than 10 nM each time.

As to `CC(=O)Nc1cc(N2CC[C@@H](c3cc(C(=O)Nc4cccc(C(F)(F)F)c4)ccc3C)C2)ccn1` [Example 41, (S)-3-(1-(2-acetamidopyridin-4-yl)pyrrolidin-3-yl)-4-methyl-N-(3-(trifluoromethyl)phenyl)benzamide], the Ki in assay [1] and in assay [2] was less than 10 nM throughout.

Regarding `Cc1ccc(C(=O)Nc2cccc(C(F)(F)F)c2)cc1[C@@H]1CCN(c2ccnc3[nH]ccc23)C1` [Example 42, (S)-3-(1-(1H-pyrrolo[2,3-b]pyridin-4-yl)pyrrolidin-3-yl)-4-methyl-N-(3-(trifluoromethyl)phenyl)benzamide], the Ki lay within 10 to 25 nM in assay [1] and 25 to 60 nM in assay [2].

In the case of `Cc1ccc(C(=O)Nc2cccc(C(F)(F)F)c2)cc1[C@@H]1CCN(c2cnc3ccnn3c2)C1` [Example 43, (S)-4-methyl-3-(1-(pyrazolo[1,5-a]pyrimidin-6-yl)pyrrolidin-3-yl)-N-(3-(trifluoromethyl)phenyl)benzamide], the inhibition constant Ki in assay [1] and in assay [2] was 25 to 60 nM each time.

Take `Cc1ccc(C(=O)Nc2cccc(C(F)(F)F)c2)cc1[C@@H]1CCN(c2ccc(Nc3cnn(C)c3)nc2)C1` [Example 44, (S)-4-methyl-3-(1-(6-((1-methyl-1H-pyrazol-4-yl)amino)pyridin-3-yl)pyrrolidin-3-yl)-N-(3-(trifluoromethyl)phenyl)benzamide]: the inhibition constant Ki was 10 to 25 nM in assay [1] and 25 to 60 nM in assay [2].

The Ki is a measure of affinity in units of concentration, obtained from inhibition or displacement.

Values taken from patent US20240425482A1, “PYRROLIDINE DERIVATIVES AS DDRS INHIBITORS” (CHIESI FARMACEUTICI S.P.A., priority 2021, published 2024).
